# Data published in patent publication US20140309184A1, “METHODS AND COMPOSITIONS FOR THE TREATMENT OF OVARIAN CANCER” (UNIVERSITY OF SOUTH ALABAMA, priority 2011, published 2014).
# “Also recorded” adds a separate entry of the source.
# Assays:
# A2780 xenografts = test: Xenograft tumor growth, carboplatin-sensitive model; type: in vivo; conditions: SCID mice; BMS-833923 100 mg/kg i.p. daily, Carboplatin 40 mg/kg i.p. twice a week, two weeks
# Method: (§1) Female SCID mice 6-8 weeks old were inoculated i.p. with 5×10^6 A2780 or A2780/CP70 cells suspended in 200 μL PBS (PH 7.4). Seven days later when the tumor reached a size of greater than 150 mm^3, the mice were randomly divided into 4 groups (8 mice per group) as follows: (1) PBS-treated control; (2) BMS-833923 alone (100 mg/kg, i.p. daily, two weeks); (3) Carboplatin alone (40 mg/kg, i.p. twice a week, two weeks); (4) Combination of BMS-833923 and Carboplatin treatment. Mice were weighed and tumor diameters were measured with calipers every 2-3 days for 20 days. The tumor volumes (mm^3) were calculated as (W^2×L)/2, where W and L are the minor and major diameters (in millimeters), respectively.
# (§2) Xenograft experiments were performed as described above. Carboplatin was dosed days 7, 11, 14, 18; BMS-833923 was dosed days 8 through 20. The experiment was terminated due to excessive tumor size in vehicle and BMS-833923 treatment groups.
# SKOV3 cells = test: MTS IC50 dosage calculation with BMS-833923; type: cell-based; conditions: Homo sapiens, SK-OV-3; SKOV3 monolayer, MTS up to 72 hrs
# Method: (§3) Ovarian cancer cells were seeded at a density of 4,000 cells/well in 96 well plates. The following day, fresh medium was added to each well and they were treated with BMS-833923 at a dose-escalation at the following doses 0, 0.1, 0.25, 0.5, 1, 2, 5, 10, and 20 μM. These cells were kept at 37° C. in a humidified 5% CO2 atmosphere. Every 24 hours, 20 μl/well of MTS reagent were added in 96 well plates and stored in 37° C. incubator for at least 3 hours followed by absorbance reading at 490 nm. The assay was carried out up to 72 hrs to obtain the IC50 concentrations of each agent.
# (§4) IC50 dosage determinations were performed as described above. […] BMS-833923 IC50 doses were used for all related experiments for specific ovarian cancer cell lines.
# OV90 cells = test: MTS IC50 dosage calculation with BMS-833923; type: cell-based; conditions: Homo sapiens, OV-90; OV90 monolayer, MTS up to 72 hrs
# Method: as §3, §4
# ES2 cells = test: MTS IC50 dosage calculation with BMS-833923; type: cell-based; conditions: Homo sapiens, ES-2; ES2 monolayer, MTS up to 72 hrs
# Method: as §3, §4
# TOV112D cells = test: MTS IC50 dosage calculation with BMS-833923; type: cell-based; conditions: Homo sapiens; TOV112D monolayer, MTS up to 72 hrs
# Method: as §3, §4
# GLI1 [1] = test: Localization of Gli1 by immunofluorescent staining in SKOV3 cells; type: cell-based; conditions: SKOV3, 24 hours treatment
# Method: Considering intranuclear Gli1 confers an activated Hh pathway, SKOV3 cells were evaluated for Gli1 location after BMS-833923 treatment and compared to control (no treatment). Cells were grown on Poly-L-Lysine coated Glass Coverslips (BD Bioscience) for overnight, then incubated with 5 μM BMS-833923 for 24 hours, respectively, fixed in 4% paraformaldehyde for 15 minutes at room temperature, washed with PBS and permeabilized with 0.25% Triton X-100 (Sigma) for 10 minutes. Primary antibody (Anti-human Gli1 antibody, Santa Cruz Biotechnology, Inc.) incubation followed for overnight at 4° C. After washing thoroughly with PBS, cells were further probed with secondary antibody (anti-rabbit IgG-FITC, Sigma) for one hour at room temperature. Nuclei were counterstained with diluted DAPI (Sigma) for 3 minutes before mounting and analyzing with microscope.
# SKOV3 cells were treated with 2.5 μBMS-833923 and the cellular location of Gli1 determined at various times using immunofluorescence. Immunofluorescence analysis was performed as described above. In untreated control cell, Gli1 is concentrated in the nucleus at 24 hrs, indicating an activated Hh pathway. […] Both indicating restriction of Gli1 from the nucleus and inhibition of Hh pathway.
# CP2780 xenografts = test: Xenograft tumor growth, carboplatin-resistant model; type: in vivo; conditions: SCID mice; BMS-833923 100 mg/kg i.p. daily, Carboplatin 40 mg/kg i.p. twice a week, two weeks
# Method: as §1, §2
# The CP2780 was derived from the A2780 Ovarian tumor xenograft model by selection for resistance to cisplatin. The CP2780 growth appeared to be more robust than observed for parental A2780 model (FIG. 12B). Average tumor volume doubling time for CP2780 was estimated at 2 days. Doubling time for parental A2780 tumor model was estimated at 3 days. […]
# PTCH = test: Quantitative RT-PCR of Hedgehog pathway mediators in SKOV3 cells; type: cell-based
# Method: (§5) Total RNA was isolated using Trizol reagent from ovarian cancer cell line monolayer and spheroids-forming cells according to the manufacturer instructions (Invitrogen Corporation, Carlsbad, Calif.) and cDNA was prepared using High Capacity Reverse Transcriptase Kit (Applied Biosystem, Foster City, Calif.). Real-time PCR was performed using a Bio-Rad iQ5 Real-time Detection system (Bio-Rad). All reactions were done as three independent replicates. All assays were done using the TaqMan Gene Expression Assays from Applied Biosystems. Primers and probes for the TaqMan system were selected from the Applied Biosystems website. [Gli1 assay ID: Hs01110766 ml, Patched (PTCH) assay ID: Hs00970980 ml. The relative expression mRNA levels of GLI1, and PTCH were normalized to internal control glyceraldehyde-3-phosphate dehydrogenase (assay ID: Hs99999905 ml) levels (2^−δδCT).
# (§6) Quantitative realtime PCR (RT-PCR) was performed as described above. To assess the effects of inhibition of SMO by BMS-833923, levels of GLI1 and PTCH were measured by quantitative RT-PCR. SKOV3 ovarian cancer cell line was treated with 2.5 μM BMS-833923 for 24 hr and 48 hr and compared to untreated controls.
# GLI1 [2] = test: as above; type: cell-based
# Method: as §5, §6
smiles,measurement,setting,value
"CNCc1ccc(C)c(NC(=O)c2ccc(Nc3nc(-c4ccccc4)c4ccccc4n3)cc2)c1 [BMS-833923, N-{2-methyl-5-[(methylamino)methyl]phenyl}-4-[(4-phenylquinazolin-2-yl)amino]benzamide]",effect on growth of A2780 xenografts in vivo,A2780 xenografts,little effect
same,IC50,SKOV3 cells,7.5 µM
same,IC50,OV90 cells,4 µM
same,IC50,ES2 cells,4 µM
same,IC50,TOV112D cells,5 µM
same,cellular location of Gli1,GLI1 [1],near complete exclusion of intranuclear GLl1; also recorded: Gli1 being excluded from the nucleus
same,effect on growth of CP2780 (A2780/CP70) xenografts in vivo,CP2780 xenografts,little effect
same,PTCH activity compared to untreated controls,"PTCH; SKOV3, 2.5 μM, 24 hr and 48 hr",down-regulation in activity
same,downregulation of PTCH protein compared to untreated controls,PTCH; as stated in the description,3 fold
same,decrease in GLI1 activity (RTQ),"GLI1 [2]; SKOV3, 2.5 μM, 24 hr and 48 hr, vs untreated",10 fold
same,downregulation of GLI1 protein compared to untreated controls,GLI1 [2]; as stated in the description,5 fold
